# Tests used:
# [1] = molecular target: Eukaryotic elongation factor 2 kinase (Homo sapiens, UniProt O00418); test: Inhibition of GST-tagged EEF2K (unknown origin) using biotinylated EEF2 peptide substrate by HTRF assay
# MCF7 = test: Cytotoxicity against human MCF7 cells after 24 hrs by MTT assay; assay type: functional, cell-based; conditions: MCF7, 24 h
# [2] = system: Tyrosine-protein kinase ABL1 (Homo sapiens), P00519 [E255K]; test: Inhibition of human phosphorylated ABL1 E255K mutant (S229 to K512 residues) expressed in mammalian expression system assessed as residual activity at 1 uM by Kinomescan method relative to control
# [3] = system: Tyrosine-protein kinase ABL1 (Homo sapiens), P00519 [T315I]; test: Inhibition of human phosphorylated ABL1 T315I mutant (S229 to K512 residues) expressed in mammalian expression system assessed as residual activity at 1 uM by Kinomescan method relative to control
# [4] = molecular target: Activin receptor type-1B (Homo sapiens) (UniProt P36896); test: Inhibition of wild-type human ACVR1B (S187 to I505 residues) expressed in bacterial expression system assessed as residual activity at 1 uM by Kinomescan method relative to control
# [5] = molecular target: Cyclin-dependent kinase 19 (Homo sapiens) (UniProt Q9BWU1); test: Inhibition of wild-type human partial length CDK11 (M1 to N360 residues) expressed in bacterial expression system assessed as residual activity at 1 uM by Kinomescan method relative to control
# [6] = molecular target: Dual specificity tyrosine-phosphorylation-regulated kinase 1B (Homo sapiens) (UniProt Q9Y463); test: Inhibition of wild-type human full length DYRK1B (M1 to S629 residues) expressed in bacterial expression system assessed as residual activity at 1 uM by Kinomescan method relative to control
# [7] = molecular target: Epidermal growth factor receptor (Homo sapiens) (UniProt P00533); test: Inhibition of wild-type human partial length EGFR (R669 to V1011 residues) expressed in bacterial expression system assessed as residual activity at 1 uM by Kinomescan method relative to control
# [8] = molecular target: Receptor tyrosine-protein kinase erbB-2 (Homo sapiens) (UniProt P04626); test: Inhibition of wild-type human partial length ERBB2 (K646 to V1225 residues) expressed in mammalian expression system assessed as residual activity at 1 uM by Kinomescan method relative to control
# [9] = molecular target: Insulin receptor (Homo sapiens) (UniProt P06213); test: Inhibition of wild-type human partial length INSR (P997 to E1318 residues) expressed in mammalian expression system assessed as residual activity at 1 uM by Kinomescan method relative to control
# [10] = system: Mast/stem cell growth factor receptor Kit (Homo sapiens), P10721 [D816V]; test: Inhibition of human partial length KIT D816V mutant (I571 to D952 residues) expressed in bacterial expression system assessed as residual activity at 1 uM by Kinomescan method relative to control
# [11] = molecular target: Mitogen-activated protein kinase kinase kinase 4 (Homo sapiens) (UniProt Q9Y6R4); test: Inhibition of wild-type human partial length MAP3K4 (G1319 to E1608 residues) expressed in bacterial expression system assessed as residual activity at 1 uM by Kinomescan method relative to control
# [12] = molecular target: Mitogen-activated protein kinase 14 (Homo sapiens) (UniProt Q16539); test: Inhibition of wild-type human full length p38-alpha (M1 to S360 residues) expressed in bacterial expression system assessed as residual activity at 1 uM by Kinomescan method relative to control
# [13] = molecular target: Serine/threonine-protein kinase PAK 1 (Homo sapiens) (UniProt Q13153); test: Inhibition of wild-type human partial length PAK1 (S149 to H545 residues) expressed in bacterial expression system assessed as residual activity at 1 uM by Kinomescan method relative to control
# [14] = molecular target: Platelet-derived growth factor receptor alpha (Homo sapiens) (UniProt P16234); test: Inhibition of wild-type human partial length PDGFRA (V575 to D1002 residues) expressed in mammalian expression system assessed as residual activity at 1 uM by Kinomescan method relative to control
# [15] = molecular target: Platelet-derived growth factor receptor beta (Homo sapiens) (UniProt P09619); test: Inhibition of wild-type human partial length PDGFRB (V582 to Y1009 residues) expressed in bacterial expression system assessed as residual activity at 1 uM by Kinomescan method relative to control
# [16] = molecular target: Phosphatidylinositol 4,5-bisphosphate 3-kinase catalytic subunit alpha isoform (Homo sapiens) (UniProt P42336); test: Inhibition of wild-type human partial length PIK3CA (R108 to N1068 residues) expressed in mammalian expression system assessed as residual activity at 1 uM by Kinomescan method relative to control
# [17] = molecular target: Phosphatidylinositol 4,5-bisphosphate 3-kinase catalytic subunit gamma isoform (Homo sapiens) (UniProt P48736); test: Inhibition of wild-type human partial length PIK3CG (S144 to A1102 residues) expressed in mammalian expression system assessed as residual activity at 1 uM by Kinomescan method relative to control
# [18] = molecular target: Serine/threonine-protein kinase pim-1 (Homo sapiens) (UniProt P11309); test: Inhibition of wild-type human partial length PIM1 (A15 to K313 residues) expressed in bacterial expression system assessed as residual activity at 1 uM by Kinomescan method relative to control
# [19] = molecular target: Serine/threonine-protein kinase pim-2 (Homo sapiens) (UniProt Q9P1W9); test: Inhibition of wild-type human partial length PIM2 (M1 to E291 residues) expressed in bacterial expression system assessed as residual activity at 1 uM by Kinomescan method relative to control
# [20] = molecular target: Serine/threonine-protein kinase pim-3 (Homo sapiens) (UniProt Q86V86); test: Inhibition of wild-type human partial length PIM3 (G16 to A317 residues) expressed in bacterial expression system assessed as residual activity at 1 uM by Kinomescan method relative to control
# [21] = molecular target: Protein kinase C epsilon type (Homo sapiens) (UniProt Q02156); test: Inhibition of wild-type human partial length PRKCE (A378 to P737 residues) expressed in mammalian expression system assessed as residual activity at 1 uM by Kinomescan method relative to control
# [22] = molecular target: RAF proto-oncogene serine/threonine-protein kinase (Homo sapiens) (UniProt P04049); test: Inhibition of wild-type human partial length RAF1 (I330 to T640 residues) expressed in bacterial expression system assessed as residual activity at 1 uM by Kinomescan method relative to control
# [23] = molecular target: Serine/threonine-protein kinase RIO2 (Homo sapiens) (UniProt Q9BVS4); test: Inhibition of wild-type human partial length RIOK2 (M1 to D313 residues) expressed in mammalian expression system assessed as residual activity at 1 uM by Kinomescan method relative to control
# [24] = molecular target: Receptor-interacting serine/threonine-protein kinase 1 (Homo sapiens) (UniProt Q13546); test: Inhibition of wild-type human partial length RIPK1 (M1 to K305 residues) expressed in bacterial expression system assessed as residual activity at 1 uM by Kinomescan method relative to control
# [25] = molecular target: TGF-beta receptor type-1 (Homo sapiens) (UniProt P36897); test: Inhibition of wild-type human partial length TGFBR1 (D179 to M503 residues) expressed in bacterial expression system assessed as residual activity at 1 uM by Kinomescan method relative to control
smiles,measurement,setting,value
CCNc1cc(-c2ccc(NC(=O)Nc3cccc(Cl)c3)cc2C(F)(F)F)ccn1,IC50,[1],762 nM
same,IC50,MCF7,1240 nM
same,Activity,[2],82%
same,Activity,[3],96%
same,Activity,[4],85%
same,Activity,[5],89%
same,Activity,[6],93%
same,Activity,[7],90%
same,Activity,[8],98%
same,Activity,[9],87%
same,Activity,[10],84%
same,Activity,[11],85%
same,Activity,[12],84%
same,Activity,[13],70%
same,Activity,[14],79%
same,Activity,[15],83%
same,Activity,[16],69%
same,Activity,[17],74%
same,Activity,[18],66%
same,Activity,[19],88%
same,Activity,[20],100%
same,Activity,[21],67%
same,Activity,[22],64%
same,Activity,[23],67%
same,Activity,[24],62%
same,Activity,[25],86%

# — ChEMBL document CHEMBL4251622, “Design, synthesis, and biological evaluation of polo-like kinase 1/eukaryotic elongation factor 2 kinase (PLK1/EEF2K) dual inhibitors for regulating breast cancer cells apoptosis and autophagy” (Eur J Med Chem, 2018)
